What is called IC50 is the concentration that inhibits the measured activity by half. A higher IC50 goes with lower potency. In general, inhibition refers to the change of the read-out against control, counted positive when it falls.

Here are results for five compounds from patent publication US8906952B2, “Indole derivative or pharmaceutically acceptable salt thereof, preparation method thereof, and pharmaceutical composition for preventing or treating metabolic diseases containing same as active ingredient” (Korea Research Institute of Bioscience and Biotechnology, priority 2011, dated 2014).

Molecules are shown by their SMILES. Where two headings read alike, the source gives them in different places. A value given as a limit tells only on which side of the number the result lay.

Type in all cases: biochemical
One experiment deals with T1, hDGAT-1 (HuTu 80) (Homo sapiens, UniProt O75907).
T1 construct: microsomal protein isolated from human duodenal adenocarcinoma (‘Hutu 80’); endogenous in cells; host or cells: HuTu 80 human duodenal adenocarcinoma cells (microsomes)
T1 sequence (O75907 1-488): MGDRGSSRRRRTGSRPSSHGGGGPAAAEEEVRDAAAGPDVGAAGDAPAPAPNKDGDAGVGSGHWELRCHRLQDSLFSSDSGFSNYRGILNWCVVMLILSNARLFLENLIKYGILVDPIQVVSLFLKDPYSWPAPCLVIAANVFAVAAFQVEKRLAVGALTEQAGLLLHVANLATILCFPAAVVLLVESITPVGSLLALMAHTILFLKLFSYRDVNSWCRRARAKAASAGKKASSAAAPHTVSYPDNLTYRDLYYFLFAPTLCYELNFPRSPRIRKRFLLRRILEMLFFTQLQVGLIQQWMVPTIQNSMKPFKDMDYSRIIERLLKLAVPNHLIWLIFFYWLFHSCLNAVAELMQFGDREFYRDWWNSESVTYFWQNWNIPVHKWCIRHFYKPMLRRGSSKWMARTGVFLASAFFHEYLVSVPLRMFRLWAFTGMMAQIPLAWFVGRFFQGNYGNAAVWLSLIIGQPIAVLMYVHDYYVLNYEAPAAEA
Description: DGAT enzyme inhibition test, microsomal protein from human duodenal adenocarcinoma (Hutu 80). The following applies: microsomal protein from HuTu 80. The source says:
(§1) To investigate inhibitory effect of the compounds of Examples 1-33 against DGAT enzyme activity, DGAT enzyme inhibition and DGAT2 selectivity were investigated using zymogen including:
2) DGAT enzyme derived from human duodenal adenocarcinoma (‘Hutu 80’), and
(§2) To be specific, for the purpose of measuring human-derived DGAT enzyme inhibitory activity, using the zymogen, including enzymes derived from insect cell overexpressing human DGAT1 and DGAT2 (‘sf9’), microsomal protein isolated from human duodenal adenocarcinoma (‘Hutu 80’), and microsomal protein isolated from rat, and according to Coleman et al., (Methods Enzymol., 98-103, 1992), and substrate including 1,2-diacylglycerol(Sigma, D0138) and [^14C]palmitoyl-CoA (Amersham, CFA583), the amount of radiation of [^14C]triacylglycerol produced after enzymatic reaction was measured.
(§3) To be more specific, to the reaction solution containing 175 mM Tris-HCl (pH 8.0), 20 μl bovine serum albumin (10 mg/ml), 100 mM magnesium chloride, 30 μM [^14C]palmitoyl CoA (0.02 μCi, Amersham) and 200 μM 1,2-dioleoylglycerol, reagent dissolved in dimethylsulfoxide (10.0 μl) was added. After introducing 100 to 200 μg isolated microsomal protein and allowing the same to react at 25° C. for 10 min, the reaction was stopped by adding 1.5 ml stop solution (2-propanol:heptane:water=80:20:2, v:v:v). To isolate the product of the reaction (i.e., [^14C]triacylglycerol), 1 ml heptane and 0.5 ml distilled water were added and then decocted. After taking 1 ml supernatant, 2 ml alkaline ethanol solution (ethanol:0.5 N sodium hydroxide:water=50:10:40, v:v:v) were added and then decocted. After taking 0.65 ml supernatant from the decoction, the amount of radiation was measured with liquid scintillation counter (LSC). The DGAT inhibitory activity was calculated with Mathematical Expression 1 below:
(§4) T denotes cpm of experimental group in which the enzymatic reaction solution was treated with the sample,
(§5) C denotes cpm of control group in which the enzymatic reaction solution was not treated with the sample, and
(§6) B denotes cpm of control group treated with the sample without zymogen.

The target of the next experiment is T2, human DGAT2 (Homo sapiens, UniProt Q96PD7).
T2 construct: made in house; host or cells: sf9 insect cells
T2 sequence (Q96PD7 1-388): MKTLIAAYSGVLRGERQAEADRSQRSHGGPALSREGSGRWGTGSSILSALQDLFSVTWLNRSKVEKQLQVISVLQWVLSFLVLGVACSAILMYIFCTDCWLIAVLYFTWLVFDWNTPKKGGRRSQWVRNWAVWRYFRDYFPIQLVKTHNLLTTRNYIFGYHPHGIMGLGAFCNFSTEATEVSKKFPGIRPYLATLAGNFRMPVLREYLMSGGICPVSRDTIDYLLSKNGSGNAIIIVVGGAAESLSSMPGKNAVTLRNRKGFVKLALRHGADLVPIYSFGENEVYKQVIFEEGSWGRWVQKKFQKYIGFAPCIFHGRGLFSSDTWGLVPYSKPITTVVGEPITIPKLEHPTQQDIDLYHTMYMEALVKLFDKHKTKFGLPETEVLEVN
Description: DGAT enzyme inhibition test, hDGAT2 enzyme from sf9 insect cells (DGAT2 selectivity). In short, it runs like this: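 Microsomes (100–200 μg) from sf9 cells overexpressing the human enzyme were incubated 10 min at 25 °C with compound in 175 mM Tris-HCl pH 8.0, 100 mM MgCl2, BSA, 30 μM [14C]palmitoyl-CoA and 200 μM 1,2-dioleoylglycerol. Extracted [14C]triacylglycerol was counted by LSC. Inhibition was calculated from treated, untreated and no-enzyme counts.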

The target of a further experiment is T3, DGAT-1 (rat liver) (Rattus norvegicus, UniProt Q9ERM3).
T3 construct: microsomal protein isolated from rat; from tissue; host or cells: rat liver microsomes
T3 sequence (Q9ERM3 1-498): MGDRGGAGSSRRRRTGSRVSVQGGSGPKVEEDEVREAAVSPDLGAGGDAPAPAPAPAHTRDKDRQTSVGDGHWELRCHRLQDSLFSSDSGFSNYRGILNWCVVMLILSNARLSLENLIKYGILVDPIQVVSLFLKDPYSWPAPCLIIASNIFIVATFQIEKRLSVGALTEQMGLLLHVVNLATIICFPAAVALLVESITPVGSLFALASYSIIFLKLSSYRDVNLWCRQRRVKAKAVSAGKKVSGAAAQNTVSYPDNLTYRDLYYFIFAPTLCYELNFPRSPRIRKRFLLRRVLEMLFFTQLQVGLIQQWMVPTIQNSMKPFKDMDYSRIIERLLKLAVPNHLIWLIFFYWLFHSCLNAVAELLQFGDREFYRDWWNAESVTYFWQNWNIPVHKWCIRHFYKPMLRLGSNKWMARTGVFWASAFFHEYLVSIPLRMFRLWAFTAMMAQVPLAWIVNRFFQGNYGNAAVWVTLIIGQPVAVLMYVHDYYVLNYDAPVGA
Description: DGAT enzyme inhibition test, rat liver-derived DGAT enzyme. The conditions noted are these: rat liver microsomal protein.
Excerpt: as §1
3) rat liver-derived DGAT enzyme.
as §2, §3, §4, §5, §6
In general terms: Liver microsomes are a subcellular fraction often used to study metabolism.

The mark [1] stands for this setting: 10 μM, enzyme from sf9 cells overexpressing hDGAT2, read-out: hDGAT-2 (sf9) inhibition rate(%)at 10 μM.

`CC(C)N(NC(=O)c1cccc(OCC(=O)O)c1)C(=O)/C=C/c1cn(C(=O)OC(C)(C)C)c2ccccc12` [Example 19, (E)-2-(3-(2-(3-(1-(tert-butoxycarbonyl)-1H-indol-3-yl)acryloyl)-2-isopropylhydrazinecarbonyl)phenoxy)acetic acid]: the IC50 was more than 100 µM on hDGAT-1 (HuTu 80) and 45.5 µM against DGAT-1 (rat liver). Further, the inhibition at 10 µM on human DGAT2 (setting [1]) is less than 0%.
Turning to `CC(C)N(NC(=O)c1ccc(OCCN2CCOCC2)cc1)C(=O)/C=C/c1cn(C(=O)OC(C)(C)C)c2ccccc12` [Example 9, (E)-tert-butyl 3-(3-(1-isopropyl-2-(4-(2-morpholinoethoxy)benzoyl)hydrazinyl)-3-oxoprop-1-enyl)-1H-indole-1-carboxylate], the IC50 against hDGAT-1 (HuTu 80) worked out at 19.6 µM; at DGAT-1 (rat liver) it was 11.8 µM. Further, the inhibition at 10 µM on human DGAT2 (setting [1]) is less than 0%.
In the case of `CC(C)N(NC(=O)c1ccccc1)C(=O)CCc1cn(Cc2ccccc2)c2ccccc12` [Example 21, N′-(3-(1-benzyl-1H-indol-3-yl)propanoyl)-N′-isopropylbenzohydrazide], the IC50 at hDGAT-1 (HuTu 80) was determined as 29.6 µM; on DGAT-1 (rat liver), 29.1 µM. Further, at human DGAT2 (setting [1]), the inhibition at 10 µM came to 1.3%.
In the same order, the values of `CC(C)(C)OC(=O)n1cc(/C=C/C(=O)NNC(=O)c2ccccc2)c2ccccc21` [Example 16, (E)-tert-butyl 3-(3-(2-benzoylhydrazinyl)-3-oxoprop-1-enyl)-1H-indole-1-carboxylate] are 10.7 µM, 26.3 µM and 3.7%.
For the compound `CC(C)N(NC(=O)c1ccccc1)C(=O)/C=C/c1cn(C2CC2)c2ccccc12` [Example 29, (E)-N′-(3-(1-cyclopropyl-1H-indol-3-yl)acryloyl)-N′-isopropylbenzohydrazide], the IC50 against hDGAT-1 (HuTu 80) is 4.6 µM; against DGAT-1 (rat liver) it was 1.9 µM. Also, the inhibition at 10 µM at human DGAT2 (setting [1]) was less than 0%; on human DGAT2 (concentration of 10 μM, read-out: hDGAT2 inhibition), less than 11%.
